# Measured values published in patent US20250170200A1, “COMPOSITION COMPRISING COFFEE EXTRACT FOR SUPPRESSING POSTPRANDIAL BLOOD SUGAR RISE” (PYXIS INC., priority 2022, published 2025).
# Entries after “also recorded” stand apart in the source; their conditions may differ.
# How the values were obtained:
# [1] = system: rat intestinal α-glucosidase; assay: Rat intestinal α-glucosidase inhibition assay; format: biochemical; conditions: in words, FIG. 1 and FIG. 2
# Experimental: • Enzyme: rat small intestinal acetone powder • Substrate: PNP-glycoside (pNPG, p-Nitrophenyl α-Dglucopyranoside) 150 mg of rat small intestine acetone powder was added to 9 ml of 0.1 M sodium phosphate buffer (pH 6.9; including 0.9% sodium chloride), ultrasonicated 12 times in an ice water bath for 30 seconds, and then centrifuged at 13,000 rpm and 4° C. for 3 minutes. After centrifugation, a supernatant was collected and used in rat intestinal α-glucosidase inhibition assay. 100 μl of a rat α-glucosidase solution and 50 μl of a sample solution were added and reacted at 37° C. for 10 minutes, and then 50 μl of 5 mM pNPG solution was added thereto to react the mixture at 37° C. for 10 minutes. After completion of the reaction, inhibitory activity against rat intestinal α-glucosidase was analyzed by measuring absorbance at 405 nm by using an ELISA reader. The sample solution used in the experiment was prepared as follows. The hot-water extract was centrifuged (8000 rpm, 30 min), the supernatant was filtered through a filter paper (90 mm/Whatman™), and the filtrate was concentrated to 60 to 150 ml and freeze-dried to produce extract powder. 100 mg of powder was mixed with 1 L of water to prepare a sample solution.
# [2] = target: T1, porcine pancreatic α-amylase (Sus scrofa, UniProt P00690); assay: Porcine pancreatic α-amylase inhibition assay; format: biochemical; conditions: at a concentration of 25 mM/ml, FIG. 4
# T1 sequence (P00690 16-511): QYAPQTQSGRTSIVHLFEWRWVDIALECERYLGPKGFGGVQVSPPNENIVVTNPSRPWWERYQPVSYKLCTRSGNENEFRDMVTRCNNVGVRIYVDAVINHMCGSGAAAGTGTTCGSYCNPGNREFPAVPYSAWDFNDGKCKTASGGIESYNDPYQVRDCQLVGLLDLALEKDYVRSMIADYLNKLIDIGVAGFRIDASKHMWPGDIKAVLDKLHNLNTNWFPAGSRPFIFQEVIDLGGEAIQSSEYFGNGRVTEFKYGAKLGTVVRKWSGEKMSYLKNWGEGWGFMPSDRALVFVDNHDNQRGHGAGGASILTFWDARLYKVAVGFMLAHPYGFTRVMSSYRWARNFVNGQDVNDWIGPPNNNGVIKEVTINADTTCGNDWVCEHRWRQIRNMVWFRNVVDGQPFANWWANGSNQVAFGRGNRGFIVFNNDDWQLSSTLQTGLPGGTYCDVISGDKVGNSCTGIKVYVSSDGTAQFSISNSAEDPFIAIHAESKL
# Experimental: • Enzyme: porcine pancreatic α-amylase • Substrate: 1% starch solution in 0.02 M sodium phosphate buffer (pH 6.9) • Coloring Reagent: 3,5-dinitrosalicylic acid solution (DNS) in 2 M NaOH with 30% sodium potassium tartrate tetrahydrate
# 200 μl of a sample solution was added to 300 μl of a porcine pancreatic α-amylase solution having a concentration of 10 U, which is dissolved in a 0.02 M sodium phosphate buffer (pH 6.9; including 0.006 M sodium chloride), and incubated at 25° C. for 10 minutes.
# 500 μl of a 1% starch solution, which was pre-cultured at 25° C. for 10 minutes, was added to the solution, and the mixture was reacted at 25° C. for 10 minutes.
# 1 ml of a 1% DNS solution dissolved in 30% Rochelle salt was added and treated in boiling water bath for 5 minutes and cooled to room temperature, and 10 ml of distilled water was added to the resultant.
# The absorbance of a reaction solution of the DNS solution and sugar decomposed from the substrate by α-amylase was measured at 540 nm by using an ELISA reader.
# SD rat [3] = assay: Postprandial blood sugar rise suppression after sucrose administration; format: in vivo; conditions: for postprandial blood sugar: sucrose
# Experimental: (§1) An SD rat, a 5-week-old male, was purchased from RAONBIO, bred in an animal breeding room, and only healthy animals at 6 weeks of age were selected and used in the experiment. After fasting the experimental animals for 24 hours or longer before the experiment, the coffee extract was administered at a concentration of 0.5 g/kg to 2 g/kg body weight of sucrose or starch, and the sample was orally administered using a zonde for oral administration. The administration group was 6 groups, 6 per each group. The blood was collected from the rat tail vein at 30, 60 and 120 minutes after oral administration, and changes in blood sugar concentration in the venous blood were measured using a blood sugar meter ([…]).
# SD rat [4] = assay: Postprandial blood sugar rise suppression after starch administration; format: in vivo
# Experimental: as §1
# [5] = 0.1 g/kg of chlorogenic acid, 30 minutes
# [6] = 0.1 g/kg of chlorogenic acid, 60 minutes (first value of 'from 30 minutes to 2 hours')
# [7] = 0.1 g/kg of chlorogenic acid, 120 minutes (2 hours)
# [8] = 0.5 g/kg of chlorogenic acid, 30 minutes
# [9] = 0.5 g/kg of chlorogenic acid, 60 minutes (first value of 'from 30 minutes to 2 hours')
# [10] = 0.5 g/kg of chlorogenic acid, 120 minutes (2 hours)
Compound,inhibitory activity against rat intestinal α-glucosidase [1],inhibitory activity against α-amylase [2],effect on postprandial blood sugar rise after sucrose intake (SD rat [3]; in words),postprandial blood sugar (SD rat [3]; [5]),postprandial blood sugar (SD rat [3]; [6]),postprandial blood sugar (SD rat [3]; [7]),postprandial blood sugar (SD rat [3]; [8]),postprandial blood sugar (SD rat [3]; [9]),postprandial blood sugar (SD rat [3]; [10]),blood sugar (SD rat [4]; [5]),blood sugar (SD rat [4]; [6]),blood sugar (SD rat [4]; [7]),blood sugar (SD rat [4]; [8]),blood sugar (SD rat [4]; [9]),blood sugar (SD rat [4]; [10])
O=C(O)/C=C/c1ccc(O)c(O)c1 [caffeic acid],increases in dependence on the concentration,,,,,,,,,,,,,,
O=C(/C=C/c1ccc(O)c(O)c1)O[C@@H]1C[C@](O)(C(=O)O)C[C@@H](O)[C@H]1O [chlorogenic acid],increases in dependence on the concentration; also recorded: the most excellent,excellent inhibitory activity,effect of suppressing postprandial blood sugar rise,184.93 ± 8.24 mg/dL,174.00 ± 16.67 mg/dL,147.38 ± 10.86 mg/dL,131.29 ± 14.47 mg/dL,130.64 ± 10.90 mg/dL,120.69 ± 13.77 mg/dL,239.00 ± 25.86 mg/dL,137.33 ± 10.46 mg/dL,126.08 ± 10.75 mg/dL,225.17 ± 18.37 mg/dL,137.23 ± 9.58 mg/dL,126.46 ± 12.1 mg/dL
O=C(O)[C@]1(O)C[C@@H](O)[C@@H](O)[C@H](O)C1 [quinic acid],increases in dependence on the concentration,excellent inhibitory activity,,,,,,,,,,,,,
